Patent US20240279176A1, “SUBSTITUTED TRICYCLIC HETEROCYCLIC COMPOUNDS AS METALLO-BETA-LACTAMASE INHIBITORS” (priority 2021, published 2024)
Like-named read-outs stand apart in the source and are kept apart here.

Assays:
[1] = tested on: Klebsiella pneumoniae ATCC BAA-2146; assay: Minimum inhibitory concentration (MIC), broth-microdilution (CLSI); type: cell-based; conditions: ATCCBAA2146, compound alone, K. pneumoniae ATCC BAA-2146, read-out: Intrinsic MIC
Text: (§1) The strain included in the study was Klebsiella pneumoniae ATCC BAA-2146 (Himedia®, India) with presence of New Delhi metallo-β-lactamase (NDM-1) gene. The quality control reference strains Escherichia coli ATCC 25922 and Pseudomonas aeruginosa ATCC 27853 were procured from Himedia®, India.
MIC values were identified through broth-microdilution in sterilized 96-well polystyrene flat-bottom microtitre plates (Cole-Parmer®) according to the guideline of the Clinical and Laboratory Standards Institute (CLSI) (CLSI; Methods for dilution antimicrobial susceptibility tests for bacteria that grow aerobically; Clinical Laboratory Standards Institute, M07-A09, 2012). This method involves the use of BBL™ Cation-adjusted Mueller-Hinton II Broth (CA-MHB; BD) and the strain (Klebsiella pneumoniae ATCC BAA-2146) concentration was adjusted to 5×10^5 CFU/mL. After 16-18 h of incubation at various concentrations of Imipenem, Meropenem (Alfa Aesar), or test compounds at 37° C., MIC was defined as the lowest concentration of antibiotic or test compound with no visible growth.

[2] = tested on: Klebsiella pneumoniae ATCC BAA-2146; assay: Checkerboard synergy assay in combination with Imipenem; type: cell-based; conditions: K. pneumoniae ATCC BAA-2146; for Fold reduction in Imipenem MIC in the presence of compounds (μg/mL) 4: compound at 4 μg/mL; for Fold reduction in Imipenem MIC in the presence of compounds (μg/mL) 8: compound at 8 μg/mL; for Fold reduction in Imipenem MIC in the presence of compounds (μg/mL) 16: compound at 16 μg/mL; for Fold reduction in Imipenem MIC in the presence of compounds (μg/mL) 32: compound at 32 μg/mL
Text: as §1
(§2) The fold modulation activity of test compounds, in combination with Imipenem or Meropenem, was checked against Klebsiella pneumoniae ATCC BAA-2146 strain by the broth-microdilution checkerboard synergy assay. The plates contained 5×10^5 CFU/mL bacterial inocula and 2-fold serial dilutions of the antibiotics (128-2 μg/mL) as well as test compounds (32-4 μg/mL) in a total volume of 200 μL of CA-MHB. Dimethyl sulfoxide (DMSO, ≤2.5%) was included as vehicle control. Following 16-18 h of incubation at 37° C., the MICs of antibiotics as well as drug combinations were visually inspected.

[3] = tested on: Klebsiella pneumoniae ATCC BAA-2146; assay: Checkerboard synergy assay in combination with Meropenem; type: cell-based; conditions: K. pneumoniae ATCC BAA-2146; for Fold reduction in meropenem MIC in the presence of compounds (μg/mL) 4: compound at 4 μg/mL; for Fold reduction in meropenem MIC in the presence of compounds (μg/mL) 8: compound at 8 μg/mL; for Fold reduction in meropenem MIC in the presence of compounds (μg/mL) 16: compound at 16 μg/mL; for Fold reduction in meropenem MIC in the presence of compounds (μg/mL) 32: compound at 32 μg/mL
Text: as §1, §2

NDM-1 = NDM-1 (Klebsiella pneumoniae, UniProt C7C422); assay: Enzyme activity: IC50 in fluorescence assay with cephalosporin substrate FC5; type: biochemical; conditions: 50 pM NDM-1, 1.5 μM FC5, 10 min pre-incubation
Chain of NDM-1 (C7C422 29-270, looked up): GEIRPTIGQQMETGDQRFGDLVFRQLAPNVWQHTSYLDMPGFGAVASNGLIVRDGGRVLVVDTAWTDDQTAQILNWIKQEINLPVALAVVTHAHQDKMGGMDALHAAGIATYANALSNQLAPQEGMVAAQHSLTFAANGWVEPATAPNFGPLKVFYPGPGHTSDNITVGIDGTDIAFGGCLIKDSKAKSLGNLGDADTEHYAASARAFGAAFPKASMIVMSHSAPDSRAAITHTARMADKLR
Description: (§3) The Class B beta-lactamases activities were measured in the presence of the test inhibitors in a fluorescence assay against an in-house synthesized fluorescent cephalosporin substrate FC5 (Berkel, et. al. J. Med. Chem. 2013, 56(17), 6945). The enzymes (NDM-1, IMP-1) and the substrate were diluted in 20 mM HEPES, pH 7.4, supplemented with 300 mM NaCl and 10 μM ZnSO4. In the assay, the final concentration of enzyme was 50 pM, and 100 pM for NDM-1, and IMP-1 respectively, and the final concentration of FC5 was 1.5 μM for NDM-1 and 10 μM for IMP-1. The test inhibitors/compounds were dissolved in dimethylsulfoxide (DMSO) and diluted in the assay with assay buffer (20 mM HEPES, pH 7.4, supplemented with 5% DMSO, 300 mM NaCl and 10 μM ZnSO4), resulting in a final concentration range of 0.008 μM to 25 μM. The assays were performed in 96-well microplate (flat bottom, black). The test inhibitors were incubated with the MBL enzyme for 10 min at room temperature, followed by addition the substrate and the fluorescence was recorded immediately (λex 380 nm, λem 460 nm) on a microplate reader. Using the initial velocity data plotted against the inhibitor concentration, the half-maximal inhibitory concentrations were calculated by an IC50 curve-fitting model in GraphPad Prism 9 software.

IMP-1 = IMP-1 (Serratia marcescens, UniProt P52699); assay: as above; type: biochemical; conditions: 100 pM IMP-1, 10 μM FC5, 10 min pre-incubation
Chain of IMP-1 (P52699 19-246, looked up, species assumed): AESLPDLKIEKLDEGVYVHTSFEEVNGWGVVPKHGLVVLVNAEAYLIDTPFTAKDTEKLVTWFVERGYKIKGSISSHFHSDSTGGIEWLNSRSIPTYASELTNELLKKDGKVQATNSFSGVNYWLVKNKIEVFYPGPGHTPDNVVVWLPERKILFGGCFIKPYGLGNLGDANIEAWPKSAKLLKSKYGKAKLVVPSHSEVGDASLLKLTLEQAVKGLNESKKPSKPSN
Description: as §3

Row | SMILES | MIC ([1]; Imipenem series) | MIC ([1]; meropenem series) | Fold reduction in Imipenem MIC in the presence of compounds (μg/mL) 4 [2] | Fold reduction in Imipenem MIC in the presence of compounds (μg/mL) 8 [2] | Fold reduction in Imipenem MIC in the presence of compounds (μg/mL) 16 [2] | Fold reduction in Imipenem MIC in the presence of compounds (μg/mL) 32 [2] | Fold reduction in meropenem MIC in the presence of compounds (μg/mL) 4 [3] | Fold reduction in meropenem MIC in the presence of compounds (μg/mL) 8 [3] | Fold reduction in meropenem MIC in the presence of compounds (μg/mL) 16 [3] | Fold reduction in meropenem MIC in the presence of compounds (μg/mL) 32 [3] | IC50 (NDM-1) | IC50 (IMP-1)
1 | COc1ccc(-c2c(C(=O)O)[nH]c3c2CCc2ccccc2-3)cc1 [Example 36, 3-(4-Methoxyphenyl)-4,5-dihydro-1H-benzo[g]indole-2-carboxylic Acid] | > 64 µg/mL | > 64 µg/mL | 2 fold | 2 fold | 2 fold | 4 fold | 2 fold | 2 fold | 4 fold | 4 fold | 2.65 µM | 18.3 µM
2 | O=C(O)c1[nH]c2c(c1-c1ccc(F)c(F)c1)CCc1ccccc1-2 [Example 37, 3-(3,4-Difluorophenyl)-4,5-dihydro-1H-benzo[g]indole-2-carboxylic Acid] | > 64 µg/mL | > 64 µg/mL | 2 fold | 2 fold | 4 fold | 4 fold | 4 fold | 4 fold | 4 fold | 4 fold | 0.342 µM | 3.86 µM
3 | COc1ccc(Cl)cc1-c1c(C(=O)O)[nH]c2c1CCc1ccccc1-2 [Example 38, 3-(5-Chloro-2-methoxyphenyl)-4,5-dihydro-1H-benzo[g]indole-2-carboxylic Acid] | > 128 µg/mL | > 128 µg/mL | 4 fold | 4 fold | 8 fold | 8 fold | 4 fold | 4 fold | 4 fold | 8 fold | 0.026 µM | 0.026 µM
4 | CC(C)(C)c1ccc(-c2c(C(=O)O)[nH]c3c2CCc2ccccc2-3)cc1 [Example 39, 3-(4-(tert-Butyl)phenyl)-4,5-dihydro-1H-benzo[g]indole-2-carboxylic Acid] | > 64 µg/mL | > 64 µg/mL | 2 fold | 4 fold | 4 fold | 4 fold | 4 fold | 4 fold | 4 fold | 4 fold | 0.591 µM | 72.1 µM
5 | O=C(O)c1[nH]c2c(c1-c1ccccc1F)CCc1ccccc1-2 [Example 41, 3-(2-Fluorophenyl)-4,5-dihydro-1H-benzo[g]indole-2-carboxylic Acid] | > 128 µg/mL | > 128 µg/mL | 4 fold | 4 fold | 8 fold | 8 fold | 4 fold | 4 fold | 4 fold | 8 fold | 0.256 µM | 1.34 µM
6 | O=C(O)c1[nH]c2c(c1-c1cccc(F)c1)CCc1ccccc1-2 [Example 42, 3-(3-Fluorophenyl)-4,5-dihydro-1H-benzo[g]indole-2-carboxylic Acid] | > 128 µg/mL | > 128 µg/mL | 4 fold | 4 fold | 8 fold | 8 fold | 4 fold | 4 fold | 4 fold | 8 fold | 0.079 µM | 1.15 µM
7 | O=C(O)c1[nH]c2c(c1-c1ccc(Cl)cc1)CCc1ccccc1-2 [Example 43, 3-(4-chlorophenyl)-4,5-dihydro-1H-benzo[g]indole-2-carboxylic Acid] | > 128 µg/mL | > 128 µg/mL | 4 fold | 4 fold | 4 fold | 8 fold | 4 fold | 4 fold | 4 fold | 4 fold | 0.007 µM | 1.48 µM
8 | O=C(O)c1[nH]c2c(c1-c1ccccc1Cl)CCc1ccccc1-2 [Example 44, 3-(2-chlorophenyl)-4,5-dihydro-1H-benzo[g]indole-2-carboxylic Acid] | > 128 µg/mL | > 128 µg/mL | 4 fold | 4 fold | 4 fold | 4 fold | 4 fold | 4 fold | 4 fold | 4 fold | 0.019 µM | 1.1 µM
9 | O=C(O)c1[nH]c2c(c1-c1ccc(Cl)cc1Cl)CCc1ccccc1-2 [Example 46, 3-(2,4-dichlorophenyl)-4,5-dihydro-1H-benzo[g]indole-2-carboxylic acid] | > 128 µg/mL | > 128 µg/mL | 4 fold | 4 fold | 8 fold | 16 fold | 4 fold | 4 fold | 8 fold | 16 fold | 0.306 µM | 10.4 µM
